“And” between values parts separate entries of the source, which are not always exact repeats. Equal values may be shown once.
Columns and labels:
[1] = tested on: thromboxane synthetase (rabbit platelet microsomes); conditions: result in words; cited from earlier work
[2] = target: T1, thromboxane synthase (Human Platelet Microsomes) (Homo sapiens, UniProt P24557); assay: Thromboxane synthase inhibition, human platelet microsomes; format: biochemical; conditions: enzyme source H = Human Platelet Microsomes; read-out: IC50
T1 construct: Platelets were obtained from 320 ml of whole blood and resuspended in 5.0 ml of Krebs-Hensleit buffer; from tissue; host or cells: human platelets (microsomes, 110,000 g pellet)
T1 sequence (P24557 1-533): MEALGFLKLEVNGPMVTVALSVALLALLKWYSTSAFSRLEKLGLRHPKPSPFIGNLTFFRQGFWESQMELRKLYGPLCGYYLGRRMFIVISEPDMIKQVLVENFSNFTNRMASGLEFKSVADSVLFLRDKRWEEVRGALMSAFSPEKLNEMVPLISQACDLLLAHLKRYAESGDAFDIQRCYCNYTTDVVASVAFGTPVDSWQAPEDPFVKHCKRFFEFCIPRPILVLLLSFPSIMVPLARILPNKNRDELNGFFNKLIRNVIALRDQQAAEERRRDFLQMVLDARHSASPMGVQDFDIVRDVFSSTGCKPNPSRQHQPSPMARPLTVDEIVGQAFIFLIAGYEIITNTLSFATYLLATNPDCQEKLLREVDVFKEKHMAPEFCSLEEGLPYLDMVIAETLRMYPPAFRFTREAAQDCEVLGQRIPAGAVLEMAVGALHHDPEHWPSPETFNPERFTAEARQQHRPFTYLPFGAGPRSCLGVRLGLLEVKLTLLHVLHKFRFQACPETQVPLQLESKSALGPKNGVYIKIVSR
Experimental: (§1) In said assay procedure, microsomes from guinea pig lung or human platelets are added to an endoperoxide intermediate in prostaglandin biosynthesis and the inhibitor in phosphate buffer solution followed by incubation, extraction and determination of the extent of thromboxane synthase inhibition by TLC with radiochromatographic profile analysis.
(§2) Determination of Inhibition of Thromboxane Synthase Activity Isolation of Human Platelet Microsomes
Platelets were obtained from 320 ml of whole blood and resuspended in 5.0 ml of Krebs-Hensleit buffer (CA^+2 free). After three consecutive freeze-thawing cycles, homogenization and centrifugation at 12,000 g for 45 min., the 12,000 supernatant was recentrifuged at 110,000 g for 60 min. The resultant pellet was resuspended in phosphate buffer (0.5 ml, 0.1M, pH 7.5) and stored at -70° until use.
(§3) Low specific activity PGH2 (3.3 μCi/μmole) was obtained from Dr. W. E. M. Lands of the University of Michigan. PGH2 of higher specific activity (16.0 μCi/μmole) was purchased from Ran Biochemicals, Tel-Aviv, Israel.
(§4) The inhibitors tested were prepared as solutions (1-10 mg/ml) in 95% ethanol.
(§5) Assay for Thromboxane Synthase
(§6) To a 12×75 mm tube containing [1-^14 C] PGH2 (2 μg, 0.01 μCi or 0.05 μCi) and inhibitor (1 mM final assay concentration, in 10 μl of ethanol) in 225 μl of phosphate buffer (0.1M, pH 7.5), was added to an aliquot of guinea pig lung microsomes (25 μl, containing 400 μg protein) or an aliquot of human platelet microsomes (25 μl, containing .congruent.[…] protein). The solution was incubated in a 22° water bath for 2 min.; ether (1 ml) and citric acid (25 μMoles) were added, and the tube plunged into an acetone-dry ice bath. The ether extract was transferred to a 1.0 ml Reacti-vial, and the volume reduced under nitrogen to .congruent.50 μl.
(§7) The extract was applied to an I.T.L.C., type SG, glass fiber sheet (Gelman Instrument Co., Ann Arbor, Mich.) and developed in isooctane; methyl ethyl ketone: acetic acid (100:19:1 or 100:9:1) (19). The sheets were air dried and scanned using a Berthold LB 2760 Radiochromatographic Scanner. In certain cases, based on the radiochromatographic profile obtained, the sheets were cut, the appropriate regions placed in scintillation vials, 10 ml of LSC cocktail (Yorktown Research, S. Hackensack, NJ) added, and the relative cpm determined.

TXA2 Synthase = assay: TXA2 synthase IC50 as listed in Table I (enzyme source not stated); format: biochemical
Experimental: as §2, §5, §6, §7

[3] = tested on: isolated perfused rat pancreas; assay: Insulin secretion by isolated perfused rat pancreas; parameters: key: insulin AUC ratio: 1st glucose pulse / 2nd pulse with compound; conditions: 16.7 mM glucose, control 1.0 ± 0.04 (n = 5)
Experimental: Determination of Insulin-Secretory Activity in the Isolated Perfused Rat Pancreas
Pancreata were obtained from young adult female Charles River rats weighing from 200-300 g. The animals were anaesthesized with sodium pentobarbitol (45 mg/kg), injected intraperitoneally, and the pancreas with its intact vasculature was removed and connected to an extracorporeal perfusion apparatus.
The basic perfusion solution contained: 133 mM NaCl, 4.4 mM KCl, 2.5 mM MgSO4, 2.4 mM Ca gluconate, 1.5 mM KH2 PO4, 29.4 mM NaHCO3, 4% dextran and 0.2% bovine serum albumin and glucose as discussed below. The perfusion flow rate was kept constant at 4 ml/min. After a 15-20 min equilibration period, the experimental protocol was begun. The pancreatic effluent was collected in either one or four-minute fractions.
The perfusion was run in the following sequence:
30 min 16.7 mM glucose-internal control
30 min 16.7 mM glucose and test compound
5 min 20 mM arginine-to check pancreas viability
Test compounds were dissolved in 90% ethanol to a concentration of 25 mM and then diluted in the perfusion buffer to the desired concentration. The perfusion effluent was collected in one or four min fractions-the samples were checked immediately, aliquoted for submission to radioimmunoassay and stored at -20° C. until the time of assay. The radioimmunoassay of insulin was carried out by a back-titration method using a pure rat insulin standard.
To assess the inhibitory activity of the test compounds, an inhibition index was calculated. The inhibition index is derived by comparing the insulin secretion response from treated versus nontreated pancreas preparations. For each preparation, a ratio of insulin secretion was calculated from the area under the insulin secretion curve of the first pulse of 16.7 mM glucose divided by the area under the curve of the second pulse of 16.7 mM glucose containing compound.

[4] = target: T2, thromboxane synthase (Guinea Pig Lung Microsomes) (Cavia porcellus, UniProt H0UT36); assay: biochemical; conditions: enzyme source G = Guinea Pig Lung Microsomes; read-out: IC50
T2 construct: The lungs were removed, freed of trachea and the majority of blood removed by rinsing the lungs with buffer; from tissue; host or cells: lungs of male guinea pigs (microsomes, 110,000 g pellet)
T2 sequence (H0UT36 entry or part of it): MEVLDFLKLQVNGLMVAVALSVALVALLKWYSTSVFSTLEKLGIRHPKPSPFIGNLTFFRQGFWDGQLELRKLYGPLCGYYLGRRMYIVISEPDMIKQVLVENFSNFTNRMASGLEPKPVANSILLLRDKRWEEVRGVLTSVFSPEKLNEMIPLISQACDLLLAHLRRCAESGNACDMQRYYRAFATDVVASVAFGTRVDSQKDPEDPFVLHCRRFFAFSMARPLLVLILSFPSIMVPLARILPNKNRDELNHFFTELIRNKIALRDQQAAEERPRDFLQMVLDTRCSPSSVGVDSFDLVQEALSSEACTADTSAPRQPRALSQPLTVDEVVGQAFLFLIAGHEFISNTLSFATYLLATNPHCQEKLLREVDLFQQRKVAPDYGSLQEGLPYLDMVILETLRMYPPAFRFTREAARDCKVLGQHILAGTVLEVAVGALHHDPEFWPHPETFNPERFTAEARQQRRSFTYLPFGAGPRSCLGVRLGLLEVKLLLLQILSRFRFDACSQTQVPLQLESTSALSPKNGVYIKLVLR
Experimental: as §1, with “analysis. […]” for “analysis.”
Isolation of Guinea Pig Lung Microsomes
Four male guinea pigs (.congruent.500 g each) were sacrificed by spinal dislocation. The lungs were removed, freed of trachea and the majority of blood removed by rinsing the lungs with buffer (0.1M phosphate pH 7.5) via the pulmonary artery. The lung tissue (18.3 g total wet wt.), was then minced, suspended in three volumes of buffer and homogenized using, initially, a Brinkmann polytron homogenizer and, finally, a glass-teflon tissue grinder. The homogenate was centrifuged at 12,000 g for 1 hr. and the resultant supernatant recentrifuged at 110,000 g for 1 hr. The 110,000 g pellet was taken up in 10 ml of buffer, divided into 5×2 ml aliquots and stored at -70° until use.
as §3, §4, §5, §6, §7

[5] = tested on: thromboxane synthase from human platelets; conditions: highest potency among the imidazole derivatives tested; read-out: I50; cited from earlier work
obese Zucker rats = assay: Antiobesity activity in vivo in obese Zucker rats; parameters: species or system rat; conditions: 16 to 18 days; for Body Weight Gain: treated minus control
Experimental: Determination of Antiobesity Activity
Thromboxane synthase inhibitors were evaluated for antiobesity activity in vivo. Body weight, food intake and circulating insulin levels were monitored during periods of drug treatment. Analysis of carcass composition was performed at study termination.
Animals, Diets and Drug Administration
Lean and obese male and female Zucker rats bred at Hoffmann-La Roche Inc. (Nutley, NJ) were kept in wire-bottomed individual cages in light (12 hr dark and light cycles beginning at 6 p.m. and 6 a.m., respectively) and temperature-controlled (22°) rooms. All rats were fed chow diet (Ralston Purina Co., St. Louis, MO) ad libitum until one to three weeks before the start of drug treatment, at which time they were trained to consume a high glucose low fat (1% corn oil) diet which is herein referred to as G-70:1% CO. Following the one to three-week training period on G-70:1% CO, the average daily food intake was calculated, and the rats were weighed and divided into groups of four to seven rats each.
The control animals continued to eat the G-70:1% CO diet ad libitum, and the experimental groups were given G-70:1% CO diet containing drug (also fed ad libitum). The amount of drug added to the diet of each experimental group was based on calculations of food consumed per kg body weight using data collected at the end of the training period. […] The period of drug treatment ranged from 16 to 18 days as noted in the legends to the tables and graph. Food intake and body weight were recorded either daily or twice a week throughout the duration of the study. The amount of drug administered was calculated from the food intake per kg body weight for each experimental group. Body weight data are reported as the difference between the body weight gains of control and drug-treated animals. Food intake and insulin data are reported as percent of control.
^a Average duration of treatment was 16 to 18 days.
^b Body weight gain was computed by taking the difference between the
weight gain of treated and control rats.

Row | SMILES | IC50 [2] [µM] | IC50 (TXA2 Synthase) [µM] | Insulin Secretion Inhibition Index ([3]; 10 μM) | IC50 [4] | Insulin Secretion Inhibition Index ([3]; 100 μM) | other results
1 | c1ccncc1 [pyridine] | – | – | – | – | – | enzymatic formation of TXB2 from PGH2 [1]: inhibition
2 | Oc1ccc(-n2ccnc2)cc1 [4-(1H--imidazol-1-yl)phenol, 4-(1H-imidazol-1-yl)phenol] | ~1 | 1 | 2 | – | – | –
3 | c1c[nH]cn1 [1H--imidazole, reference compound] | – | 600 | – | > 100 µM and < 1000 µM | 2 | Insulin Secretion Inhibition Index ([3]; 1000 μM): 3
4 | CC(C)c1ccccc1-n1ccnc1 [1-[2-(1-methylethyl)phenyl]-1H--imidazole] | ~1 | – | – | – | – | IC50 [5]: ~0.01 µM
5 | S=C(n1ccnc1)n1ccnc1 [1,1'-carbonothioylbis-1H--imidazole, 1,1'-carbonothioylbis-1H-imidazole] | – | 15 | – | 10 to 100 µM | – | Insulin Secretion Inhibition Index ([3]; 1000 μM): 5
6 | c1ccc2c(Cn3ccnc3)c[nH]c2c1 [3-(1H--imidazol-1-ylmethyl)-1H--indole, 3-(1H-imidazol-1-ylmethyl)-1H-indole] | ~1 | 1 | 1 | – | 32 | Insulin Secretion Inhibition Index ([3]; 50 μM): 13; Food Consumption (obese Zucker rats; 18 mg/kg in diet, P ≤ 0.05): 81 ± 1 % of control; Insulin (obese Zucker rats; 18 mg/kg in diet, P ≤ 0.05): 72 ± 9 % of control; Body Weight Gain (obese Zucker rats; 18 mg/kg in diet, P ≤ 0.05): -24 g; Food Consumption (obese Zucker rats; 55 mg/kg in diet, P ≤ 0.05): 63 ± 4 % of control; Insulin (obese Zucker rats; 55 mg/kg in diet, P ≤ 0.05): 12 ± 2 % of control; Body Weight Gain (obese Zucker rats; 55 mg/kg in diet, P ≤ 0.05): -68 g
7 | CCCCCCCCCn1ccnc1 [1-nonyl-1H--imidazole] | – | – | – | – | – | IC50 [5]: ~0.01 µM
8 | c1ccc(C(c2ccccc2)(c2ccccc2)n2ccnc2)cc1 [1-(triphenylmethyl)-1H--imidazole, 1-(triphenylmethyl)-1H-imidazole] | 10 to 100 | 10 to 100 | 2 | 10 to 100 µM | – | –
9 | CC(C)c1[nH]c2ccccc2c1C(=O)c1cccnc1 [[2-(1-methylethyl)-1H-indol-3-yl)]-3-pyridinyl-methanone] | ~1 | 1 | – | – | 5 | Food Consumption (obese Zucker rats; 94 mg/kg in diet, not marked significant): 89 ± 4 % of control; Body Weight Gain (obese Zucker rats; 94 mg/kg in diet, P ≤ 0.05): -17 g
10 | CC(C)Oc1ccc(-n2ccnc2)cc1 [1-[4-(1-methylethoxy)phenyl]-1H-imidazole] | ~10 | 10 | – | – | 4 | Food Consumption (obese Zucker rats; 82 mg/kg in diet, P ≤ 0.05): 80 ± 2 % of control; Insulin (obese Zucker rats; 82 mg/kg in diet, not marked significant): 94 ± 21 % of control; Body Weight Gain (obese Zucker rats; 82 mg/kg in diet, P ≤ 0.05): -18 g

Source: US4731363A, “Thromboxane synthase inhibitors as insulin lowering agents and antiobesity agents” (priority 1986, dated 1988)
